This is an account of results in ChEMBL document CHEMBL3351699, “Diarylthiazole: an antimycobacterial scaffold potentially targeting PrrB-PrrA two-component system” (J Med Chem, 2014).

pIC50: −log10 of the molar value. Converted amounts (≈) assume the structure as drawn.

In data set [1] the test system is Mycobacterium tuberculosis. The experiment in a line: Antimicrobial activity against Mycobacterium tuberculosis H37Rv ATCC 27294 assessed as growth inhibition after 5 days by microdilution method. Type of data set: functional. As to conditions: H37Rv ATCC 27294, 120 h. On the technique in general: Dilution methods test growth across graded concentrations, often in twofold steps.

Data set [2] deals with Mycobacterium tuberculosis. The experiment in a line: Bactericidal activity against Mycobacterium tuberculosis H37Rv ATCC 27294 after 5 days by microdilution method. Type of data set: functional. As to conditions: H37Rv ATCC 27294, 120 h.
Data set [3] relates to Mycobacterium tuberculosis. The experiment in a line: Antimicrobial activity against clinical isolate Mycobacterium tuberculosis DKU76 assessed as growth inhibition after 7 days by turbidometry. Type of data set: functional. As to conditions: DKU76, 168 h.
Data set [4] concerns Mycobacterium tuberculosis. The data set is described as follows: Antimicrobial activity against clinical isolate Mycobacterium tuberculosis Harlingen assessed as growth inhibition after 7 days by turbidometry. Type of data set: functional. As to conditions: 168 h.
Data set [5] relates to Mycobacterium tuberculosis. The experiment in a line: Antimicrobial activity against clinical isolate Mycobacterium tuberculosis JAL assessed as growth inhibition after 7 days by turbidometry. Type of data set: functional. The conditions noted are these: 168 h.
The subject of data set [6] is Mycobacterium tuberculosis. The data set is described as follows: Antimicrobial activity against clinical isolate Mycobacterium tuberculosis ATCC35811 assessed as growth inhibition after 7 days by turbidometry. Type of data set: functional. The conditions noted are these: ATCC35811, 168 h.
Data set [7] deals with Mycobacterium tuberculosis. The data set is described as follows: Antimicrobial activity against clinical isolate Mycobacterium tuberculosis H37Rv ATCC 27294 assessed as growth inhibition after 7 days by turbidometry. Type of data set: functional. The conditions noted are these: H37Rv ATCC 27294, 168 h.
Data set [8] relates to Mycobacterium tuberculosis. The experiment in a line: Antimicrobial activity against clinical isolate Mycobacterium tuberculosis Erdman assessed as growth inhibition after 7 days by turbidometry. Type of data set: functional. The conditions noted are these: 168 h.
The test system of data set [9] is Mycobacterium tuberculosis. The data set is described as follows: Antimicrobial activity against clinical isolate Mycobacterium tuberculosis ATCC25618 assessed as growth inhibition after 7 days by turbidometry. Type of data set: functional. The conditions noted are these: ATCC25618, 168 h.
Data set [10] deals with Mycobacterium tuberculosis. The data set is described as follows: Antimicrobial activity against clinical isolate Mycobacterium tuberculosis DKU220 assessed as growth inhibition after 7 days by turbidometry. Type of data set: functional. The conditions noted are these: DKU220, 168 h.
The subject of data set [11] is Mycobacterium tuberculosis. The data set is described as follows: Antimicrobial activity against clinical isolate Mycobacterium tuberculosis DKU97A assessed as growth inhibition after 7 days by turbidometry. The conditions noted are these: 168 h. Type of data set: functional.
Data set [12] relates to Mycobacterium tuberculosis. The data set is described as follows: Antimicrobial activity against clinical isolate Mycobacterium tuberculosis Beijing assessed as growth inhibition after 7 days by turbidometry. Type of data set: functional. As to conditions: 168 h.
The test system of data set [13] is Mycobacterium tuberculosis. The data set is described as follows: Antimicrobial activity against clinical isolate Mycobacterium tuberculosis DKU211 assessed as growth inhibition after 7 days by turbidometry. Type of data set: functional. As to conditions: DKU211, 168 h.
For data set [14], the target named is T1, Enoyl-[acyl-carrier-protein] reductase [NADH] (Mycobacterium tuberculosis, UniProt P9WGR1).
T1 sequence (P9WGR1 whole entry): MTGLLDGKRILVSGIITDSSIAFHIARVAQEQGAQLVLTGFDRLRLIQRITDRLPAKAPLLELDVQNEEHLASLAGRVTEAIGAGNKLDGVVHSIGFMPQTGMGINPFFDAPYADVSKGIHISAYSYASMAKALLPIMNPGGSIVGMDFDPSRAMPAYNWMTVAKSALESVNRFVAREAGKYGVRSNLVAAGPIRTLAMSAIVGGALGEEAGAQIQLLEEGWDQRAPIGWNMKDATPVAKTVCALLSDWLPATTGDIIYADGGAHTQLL
The experiment in a line: Inhibition of Mycobacterium tuberculosis InhA using NADH and dodecyl coA substrate by LC-MS/MS method.

The nature of data set [15]: Solubility of the compound. Type of data set: physicochemical.
A short description of data set [16]: Intrinsic clearance in human liver microsomes. Type of data set: ADME. As to conditions: read-out: CLH.
A short description of data set [17]: Unbound fraction in mouse plasma. Type of data set: ADME, cell-free.
Data set [18] can be described thus: Intrinsic clearance in mouse liver microsomes. Type of data set: ADME. As to conditions: read-out: CLH. In general terms: Liver microsomes are vesicles of endoplasmic reticulum, rich in cytochrome P450 enzymes.
The test system of data set [19] is Mycobacterium tuberculosis. The data set is described as follows: Ratio of MBC for Mycobacterium tuberculosis H37Rv ATCC 27294 to MIC for Mycobacterium tuberculosis H37Rv ATCC 27294. Type of data set: functional.

Consider `COCc1cc(-c2nc(-c3ccc(Cl)cc3)cs2)ccn1`, for which the MIC80 (commonly an inhibitory concentration at the 80% level, which refers to growth in some studies and to a panel of isolates in others) in [1] worked out at 4 µg/mL (≈ 12.6 µM).

As to `CCc1cc(-c2ncc(-c3ccnc(OC)c3)s2)ccn1`, in data set [2], the MBC (in general, the lowest tested concentration that kills the bacteria rather than only halting them) was found to be 0.5 µg/mL (≈ 1.68 µM).

In the case of `CCCc1cc(-c2nsc(-c3ccnc(CCC)c3)n2)ccn1`, in data set [1], the MIC80 was 32 µg/mL (≈ 98.6 µM).

On to `CCCc1cc(-c2nc(-c3ccc(OC)cc3)cs2)ccn1`, for which the MIC80 in [1] was 1 µg/mL (≈ 3.22 µM).

Consider `CCCc1cc(-c2nc(-c3cccc(OC)c3)cs2)ccn1`, for which the MIC80 was determined as 1 µg/mL (≈ 3.22 µM) in data set [3]; 0.13 µg/mL (≈ 0.419 µM) in data set [4]; 0.5 µg/mL (≈ 1.61 µM) in data set [1]; 0.5 µg/mL (≈ 1.61 µM) in data set [5]; 0.5 µg/mL (≈ 1.61 µM) in data set [6]; 0.25 µg/mL (≈ 0.805 µM) in data set [7]. The MIC80 amounted to 0.25 µg/mL (≈ 0.805 µM) in [8]; 0.25 µg/mL (≈ 0.805 µM) in data set [9]; 1 µg/mL (≈ 3.22 µM) in data set [10]; 0.5 µg/mL (≈ 1.61 µM) in data set [11]; 0.13 µg/mL (≈ 0.419 µM) in data set [12]; 1 µg/mL (≈ 3.22 µM) in data set [13].

As to `CCCc1cc(-c2nc(-c3ccc(Cl)cc3)c(C(N)=O)s2)ccn1`, the MIC80 in data set [1] was greater than 32 µg/mL.

Take `CO[C@H]1/C=C/O[C@@]2(C)Oc3c(C)c(O)c4c(O)c(c(/C=N/N5CCN(C)CC5)c(O)c4c3C2=O)NC(=O)/C(C)=C\C=C\[C@H](C)[C@H](O)[C@@H](C)[C@@H](O)[C@@H](C)[C@H](OC(C)=O)[C@@H]1C` [RIFAMPIN]: the MIC80 in data set [3] worked out at 0.003 µg/mL (≈ 0.00365 µM); in [4], 0.003 µg/mL (≈ 0.00365 µM); in data set [5], 0.003 µg/mL (≈ 0.00365 µM); in data set [6], 0.003 µg/mL (≈ 0.00365 µM); in data set [7] it was 0.007 µg/mL (≈ 0.00851 µM); in data set [8], 0.003 µg/mL (≈ 0.00365 µM). Besides, the MIC80 in [9], in [10], in [11], in [12] and in data set [13] was 0.003 µg/mL (≈ 0.00365 µM) throughout. The pIC50 – broadly, −log10 of the IC50, conventionally taken in molar units – in data set [14] was 7.52.

For `CCCc1cc(-c2csc(-c3ccnc(CCC)c3)n2)ccn1`, the MIC80 in data set [1] worked out at 0.25 µg/mL (≈ 0.773 µM).

For the compound `CCCc1cc(-c2nc(-c3ccccc3F)cs2)ccn1`, in data set [1], the MIC80 turned out to be 2 µg/mL (≈ 6.7 µM).

For `CCCc1cc(-c2nc(-c3ccccc3C(F)(F)F)cs2)ccn1`, the MIC80 in data set [1] is greater than 32 µg/mL.

As for `CCCc1cc(-c2nc(-c3cccc(F)c3)cs2)ccn1`, the MIC80 in data set [1] amounted to 1 µg/mL (≈ 3.35 µM).

Consider `CCCc1cc(-c2nc(-c3ccc(OCCOC)cc3)cs2)ccn1`, for which the MIC80 in [1] was found to be 1 µg/mL (≈ 2.82 µM).

Turning to `CCCc1cc(-c2nc(-c3ccccc3OC)cs2)ccn1`, the MIC80 in data set [1] came to 1 µg/mL (≈ 3.22 µM).

For `CCc1cc(-c2nc(-c3ccc(Cl)cc3)cs2)ccn1`, the MIC80 in data set [1] worked out at 2 µg/mL (≈ 6.65 µM).

Regarding `CCCc1cc(-c2nc(-c3ccnc(OCCN(C)C)c3)cs2)ccn1`, the MIC80 in [1] is 8 µg/mL (≈ 21.7 µM).

As to `CCCc1cc(-c2nc(-c3ccc(NS(C)(=O)=O)cc3)cs2)ccn1`, the solubility (in general, the dissolved amount per volume that the medium holds) in data set [15] was determined as 1.3 µM (≈ 0.486 µg/mL). For the same compound, the MIC80 in [3] amounted to 1 µg/mL (≈ 2.68 µM); in data set [4] it was 0.13 µg/mL (≈ 0.348 µM); in [1], 0.4 µg/mL (≈ 1.07 µM); in data set [5], 0.25 µg/mL (≈ 0.669 µM); in data set [6] it was 0.5 µg/mL (≈ 1.34 µM); in data set [7], 0.25 µg/mL (≈ 0.669 µM). The MIC80 in data set [8] is 0.13 µg/mL (≈ 0.348 µM); in [9], 0.13 µg/mL (≈ 0.348 µM); in data set [10], 0.5 µg/mL (≈ 1.34 µM); in data set [11], 0.5 µg/mL (≈ 1.34 µM); in data set [12] it was 0.13 µg/mL (≈ 0.348 µM); in data set [13], 0.5 µg/mL (≈ 1.34 µM). In addition, the microsomal CLint came to 4.3 µL/min/mg in data set [16] and 28.8 µL/min/mg in data set [18]. Also, in [17], the fraction unbound (as a rule, free concentration divided by total concentration) was less than 0.01.

`CCCc1cc(-c2nc(-c3ccc(OCCN4CCCC4)cc3)cs2)ccn1`: the Ratio in data set [19] is 1. For the same compound, in data set [15], the solubility worked out at 155 µM (≈ 60.8 µg/mL). Also, the MIC80 in data set [1] stood at 4.9 µg/mL (≈ 12.5 µM). In data set [2], this compound returned an MBC of 4.9 µg/mL (≈ 12.5 µM).

As to `CCCc1cc(-c2nc(-c3ccc(Cl)cc3)cs2)ccn1`, in [1], the MIC80 turned out to be 1 µg/mL (≈ 3.18 µM). The same compound gave a minimal bactericidal concentration (MBC) in [2] of 2 µg/mL (≈ 6.35 µM).

In the case of `CCCc1cc(-c2nc(-c3cccc(C(F)(F)F)c3)cs2)ccn1`, the MIC80 in data set [1] stood at 0.5 µg/mL (≈ 1.44 µM).

Take `CCCc1cc(-c2nc(-c3ccc(C(F)(F)F)cc3)cs2)ccn1`: the MIC80 in data set [1] was 1 µg/mL (≈ 2.87 µM).

Turning to `CCCc1cc(-c2nc(-c3ccccc3)cs2)ccn1`, the MIC80 in data set [1] is 1 µg/mL (≈ 3.57 µM).

`CCCc1cc(-c2nc(-c3ccccn3)cs2)ccn1`: the MIC80 in data set [1] came out at 4 µg/mL (≈ 14.2 µM).

On to `CCCc1cc(-c2nc(-c3ccnc(O[C@H]4CCOC4)c3)cs2)ccn1`, for which the MIC80 in data set [1] came out at 2 µg/mL (≈ 5.44 µM).

Turning to `CCCc1cc(-c2nc(-c3ccc(Cl)cc3)c(C)s2)ccn1`, the MIC80 in [1] came to 4 µg/mL (≈ 12.2 µM).
